Measured values as given in patent publication US5554640A, “Use of propanolamine derivatives as selective 5-HT1 antagonists” (Eli Lilly and Company, priority 1995, dated 1996).
Entries after “also recorded” stand apart in the source; their conditions may differ. Where two headings read alike, the source gives them in different places.

Tests used:
β-adrenergic receptors = assay: Binding of 3H-dihydroalprenolol to β-adrenergic receptors, calf brain cortical membranes; design: species or system bovine (calf); details: inhibition of 2 nM 3H-dihydroalprenolol binding, 20° C, 20 minutes, pH 7.4, read-out: Beta IC50
Method: The compounds of this invention were evaluated in the following tests systems. Procedure for radioligand receptor assays--Male Sprague-Dawley rats weighing 110-150 g were decapitated and brains were immediately removed. Bovine brains were quickly removed from calf in the slaughterhouse. Cerebral cortices were dissected out at 4° C. and homogenized in 0.32M sucrose. After centrifugation at 1000×g for 10 minutes and then 17,000×g for 20 minutes, a crude synaptosomal fraction was sedimented. The pellet was suspended in 100 volumes of 50 mM tris-HCl buffered at pH 7.4, incubated at 37° C. for 10 minutes, and centrifuged at 50,000×g for 10 minutes. The process was repeated and the final pellet was suspended in ice-chilled 50 mM tris-HCl buffered at pH 7.4. […] Cortical membranes (500 μg protein) of calf brain were incubated at 20° C. for 20 minutes in 2 ml of medium containing […] tris-HCl buffered at pH 7.4; 2 nM 3H-dihydroalprenolol; and various concentrations of test compound. Binding was terminated by filtering samples through glass fiber (GFC) filters. […] Other conditions were as described for 3[…] binding.

[1] = biological target: T1, serotonin-1A receptor (5-HT1A) (Rattus norvegicus, UniProt P19327); assay: biochemical; assay type: binding, rat (Sprague-Dawley); details: for Ratio Beta IC50 / 5-HT1A IC50: selectivity for 5-HT1A over beta receptor, Beta IC50 from 3H-dihydroalprenolol binding
T1 sequence (P19327 1-422): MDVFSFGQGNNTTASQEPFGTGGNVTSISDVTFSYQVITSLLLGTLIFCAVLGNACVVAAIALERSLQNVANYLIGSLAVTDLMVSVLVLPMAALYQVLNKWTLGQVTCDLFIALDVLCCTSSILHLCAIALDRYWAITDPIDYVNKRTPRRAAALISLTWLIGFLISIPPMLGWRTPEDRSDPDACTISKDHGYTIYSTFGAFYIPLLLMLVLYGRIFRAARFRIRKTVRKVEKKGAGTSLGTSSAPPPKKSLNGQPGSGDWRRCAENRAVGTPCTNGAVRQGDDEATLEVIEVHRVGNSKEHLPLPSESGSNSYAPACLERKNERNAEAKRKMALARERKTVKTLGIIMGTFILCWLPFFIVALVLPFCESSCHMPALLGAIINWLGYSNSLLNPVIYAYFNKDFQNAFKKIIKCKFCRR
Method: The compounds of this invention were evaluated in the following tests systems.
Procedure for radioligand receptor assays--Male Sprague-Dawley rats weighing 110-150 g were decapitated and brains were immediately removed. Bovine brains were quickly removed from calf in the slaughterhouse. Cerebral cortices were dissected out at 4° C. and homogenized in 0.32M sucrose. After centrifugation at 1000×g for 10 minutes and then 17,000×g for 20 minutes, a crude synaptosomal fraction was sedimented. The pellet was suspended in 100 volumes of 50 mM tris-HCl buffered at pH 7.4, incubated at 37° C. for 10 minutes, and centrifuged at 50,000×g for 10 minutes. The process was repeated and the final pellet was suspended in ice-chilled 50 mM tris-HCl buffered at pH 7.4.
Binding of ^3 H-8-hydroxy-2- (di-n-propylamino) tetralin(3H-80HDPAT) to serotonin-1A receptor was performed according to the method described by Wong et al., J. Neural Transm. , 71, 207 (1988). Cortical membranes (300 μg protein) isolated from rat brain were incubated at 28 C for 30 minutes in 2 ml of medium containing 50 mM tris-HCl buffered at pH 7.4; 10 μM pargyline; 0.6 mM ascorbic acid; 5 mM calcium chloride; 0.4 nM 3H-8OHDPAT; and various concentrations of test compound. Binding was terminated by filtering samples under reduced pressure through glass fiber (GFB) filters. The filters were washed twice with 5 ml of ice cold buffer and placed in scintillation vials with 10 ml of PCS (Amlersham/Searle) scintillation fluid. Radioactivity was measured with a liquid scintillation spectrometer. Specific binding of 3H-80HDPAT is defined as the difference of radioactivity bound in the absence and in the presence of 10 μM spiperone.

[2] = tested on: 5-HT1A and 5-HT1B receptors; details: background knowledge; cited from earlier work
[3] = inhibition of 0.4 nM 3H-8OHDPAT binding, rat cortical membranes, 28 C, 30 minutes, pH 7.4

Structure (SMILES) | IC50 (β-adrenergic receptors) | IC50 [1, 3] | Ratio Beta IC50 / 5-HT1A IC50 [1] | IC50 [1] | antagonism of 5-HT1 receptors relative to β-block (in words) [2]
CC1CCCCC1NCC(O)COc1cccc2ccccc12 (stereo not drawn) [(2-methylcyclohexyl)] | 174 nM | 33.4 nM | 5.2 |  | 
OC(CN[C@H]1CC[C@H](c2ccccc2)CC1)COc1cccc2ccccc12 (stereo partly drawn) [(E-4-phenylcyclohexyl)] | 264 nM | > 1000 nM | < 0.26 |  | 
OC(CN[C@H]1CC[C@@H](c2ccccc2)CC1)COc1cccc2ccccc12 (stereo partly drawn) [(Z-4-phenylcyclohexyl)] | 442 nM | 34.1 nM | 13 |  | 
O=C(O)C(=O)O.OC(CNC1CCCCCC1)COc1cccc2ccccc12 (stereo not drawn) [(cycloheptyl), 1-(1-Naphthalenoxy) -3-(cycloheptylamino) -2-propanol ethanedioate] | 2280 nM |  | 99 | 23 nM | 
OC(CNC1CCCCC1)COc1cccc2ccccc12 (stereo not drawn) [(cyclohexyl)] | 622 nM | 15.4 nM | 40.4 |  | 
O=C(O)C(=O)O.OC(CNC1CCCCCCC1)COc1cccc2ccccc12 (stereo not drawn) [(cyclooctyl), 1-(1-Naphthalenoxy)-3-(cyclooctylamino) -2-propanol ethanedioate] | 1000 nM |  | 22.2 | 45 nM | 
OC(CNC1CCCC1)COc1cccc2ccccc12 (stereo not drawn) [(cyclopentyl)] | 138 nM | 49 nM | 2.8 |  | 
CC(C)(C)C(C)(C)NCC(O)COc1cccc2ccccc12 (stereo not drawn) [C(CH3)2 C(CH3)3] | 225 nM | 16.8 nM | 15.2 |  | 
CC#CC(C)(C)NCC(O)COc1cccc2ccccc12 (stereo not drawn) [C(CH3)2 CCCH3] | 398 nM | 38 nM | 10.5 |  | 
C#CC(C)(C)NCC(O)COc1cccc2ccccc12 (stereo not drawn) [C(CH3)2 CCH] | 1360 nM | 88 nM | 15.4 |  | 
CCCC(C)(C)NCC(O)COc1cccc2ccccc12 (stereo not drawn) [C(CH3)2 CH2 CH2 CH3] | 98 nM | 41 nM | 2.4 |  | 
CCC(C)(C)NCC(O)COc1cccc2ccccc12 (stereo not drawn) [C(CH3)2 CH2 CH3] | 1050 nM | 53 nM | 20 |  | 
C=CC(C)(C)NCC(O)COc1cccc2ccccc12 (stereo not drawn) [C(CH3)2 CHCH2] | 124 nM | 100 nM | 1.24 |  | 
CC(C)(C)NCC(O)COc1cccc2ccccc12 (stereo not drawn) [C(CH3)3] | 97.3 nM | 77 nM | 1.3 |  | 
OC(CNCCc1ccccc1)COc1cccc2ccccc12 (stereo not drawn) [CH2 CH2 C6 H5] | 313 nM | 63 nM | 4.8 |  | 
CCCCCNCC(O)COc1cccc2ccccc12 (stereo not drawn) [CH2 CH2 CH2 CH2 CH3] | 185 nM | 23.4 nM | 7.9 |  | 
CCCCNCC(O)COc1cccc2ccccc12 (stereo not drawn) [CH2 CH2 CH2 CH3] | 124 nM | 36.9 nM | 3.4 |  | 
CC(C)CNCC(O)COc1cccc2ccccc12 (stereo not drawn) [CH2 CH(CH3)2] | 683 nM | 73 nM | 9.4 |  | 
CCCC(C)(C)NCC(O)COc1ccccc1C1CCCC1.O=C(O)C(=O)O (stereo not drawn) [CH(CH3)2 CH2 CH2 CH3, 1-(2-Cyclopentylphenoxy)-3-(1,1-dimethylbutylamino) -2-propanol ethanedioate] | 16 nM |  | 2.5 | 6.5 nM | 
C#CC(C)NCC(O)COc1cccc2ccccc12 (stereo not drawn) [CH(CH3)CCH] | 1270 nM | 180 nM | 7.1 |  | 
CCC(C)NCC(O)COc1cccc2ccccc12 (stereo not drawn) [CH(CH3)CH2 CH3] | 104 nM | 73 nM | 1.4 |  | 
COCC(C)NCC(O)COc1cccc2ccccc12 (stereo not drawn) [CH(CH3)CH2 OCH3] | 65 nM | 147 nM |  |  | 
O=C(O)/C=C\C(=O)O.OC(CNC1CCCCC1)COc1cccc2[nH]ccc12 (stereo not drawn) [Cyclohexyl, 1-(4-Indolyloxy)-3-(cyclohexylamino)-2-propanol maleate] | 56 nM | 10.3 nM | 5.4 |  | 
O=C(O)C(=O)O.OC(CNC1CCCCCC1)COc1ccccc1C1CCCC1 (stereo not drawn) [cycloheptyl, 1-(2-Cyclopentylphenoxy)-3-(cycloheptylamino) 2-propanol ethanedioate] | 48 nM |  | 16 | 3 nM | 
O=C(O)C(=O)O.OC(CNC1CCCCCCC1)COc1ccccc1C1CCCC1 (stereo not drawn) [cyclooctyl, 1-(2-Cyclopentylphenoxy) -3-(cyclooctylamino) 2-propanol ethanedioate] | > 1000 nM |  | > 200 | 5 nM | 
OC(CNC1CCCC1)COc1ccccc1C1CCCC1 (stereo not drawn) [cyclopentyl] | 7 nM | 5 nM | 1.4 |  | 
CC(C)NCC(O)COc1cccc2[nH]ccc12 (stereo not drawn) [pindolol] |  |  |  |  | at concentrations far in excess of those shown to block the β-receptor; also recorded: not selective agents for the serotonin receptor due to their β-blocking activities
